Data from patent publication EP4722207A1, “OXOISOINDOLINYL-SUBSTITUTED TETRAHYDROPYRIMIDINEDIONE DERIVATIVE AND USE THEREOF” (Gluetacs Therapeutics (Shanghai) Co., Ltd., priority 2023, dated 2024).

What was measured:
IKZF3 = biological target: T1, IKZF3 (Homo sapiens, UniProt Q96SW2+Q9UKT9); assay: Western-blot assay, substrate protein degradation in hPBMCs: IKZF3; type: cell-based; conditions: compounds at 50 nM and 500 nM, 24 hours
T1 construct: effects of the compounds of the present disclosure on the expression of target proteins in cells; endogenous in cells; host or cells: human PBMCs (hPBMCs)
T1 sequence (Q9UKT9 whole entry): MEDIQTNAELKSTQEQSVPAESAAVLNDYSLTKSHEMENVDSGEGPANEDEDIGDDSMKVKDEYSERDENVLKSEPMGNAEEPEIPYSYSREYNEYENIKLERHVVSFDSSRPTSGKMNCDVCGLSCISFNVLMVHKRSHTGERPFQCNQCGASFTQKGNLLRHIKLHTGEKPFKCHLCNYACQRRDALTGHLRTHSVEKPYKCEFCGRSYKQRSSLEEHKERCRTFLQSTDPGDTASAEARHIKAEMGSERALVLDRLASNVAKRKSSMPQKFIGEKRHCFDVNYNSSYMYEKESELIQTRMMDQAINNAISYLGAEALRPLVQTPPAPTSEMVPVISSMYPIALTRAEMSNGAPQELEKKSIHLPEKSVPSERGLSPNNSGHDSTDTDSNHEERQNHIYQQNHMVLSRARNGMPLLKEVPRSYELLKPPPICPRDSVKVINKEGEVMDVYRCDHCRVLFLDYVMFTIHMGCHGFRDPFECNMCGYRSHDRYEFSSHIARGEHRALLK
T1 sequence (Q96SW2 whole entry): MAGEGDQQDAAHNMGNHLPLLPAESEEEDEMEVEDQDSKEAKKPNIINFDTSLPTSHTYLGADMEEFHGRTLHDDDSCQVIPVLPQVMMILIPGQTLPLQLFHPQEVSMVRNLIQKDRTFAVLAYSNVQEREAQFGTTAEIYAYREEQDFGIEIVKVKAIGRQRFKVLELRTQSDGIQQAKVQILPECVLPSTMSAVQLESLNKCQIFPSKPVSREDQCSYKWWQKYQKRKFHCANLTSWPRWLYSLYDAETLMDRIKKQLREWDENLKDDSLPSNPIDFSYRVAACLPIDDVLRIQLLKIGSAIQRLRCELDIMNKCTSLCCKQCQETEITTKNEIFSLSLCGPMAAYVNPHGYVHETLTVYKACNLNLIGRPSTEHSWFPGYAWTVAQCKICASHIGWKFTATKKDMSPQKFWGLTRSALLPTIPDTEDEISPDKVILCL
T1 sequence (Q16531 whole entry partner): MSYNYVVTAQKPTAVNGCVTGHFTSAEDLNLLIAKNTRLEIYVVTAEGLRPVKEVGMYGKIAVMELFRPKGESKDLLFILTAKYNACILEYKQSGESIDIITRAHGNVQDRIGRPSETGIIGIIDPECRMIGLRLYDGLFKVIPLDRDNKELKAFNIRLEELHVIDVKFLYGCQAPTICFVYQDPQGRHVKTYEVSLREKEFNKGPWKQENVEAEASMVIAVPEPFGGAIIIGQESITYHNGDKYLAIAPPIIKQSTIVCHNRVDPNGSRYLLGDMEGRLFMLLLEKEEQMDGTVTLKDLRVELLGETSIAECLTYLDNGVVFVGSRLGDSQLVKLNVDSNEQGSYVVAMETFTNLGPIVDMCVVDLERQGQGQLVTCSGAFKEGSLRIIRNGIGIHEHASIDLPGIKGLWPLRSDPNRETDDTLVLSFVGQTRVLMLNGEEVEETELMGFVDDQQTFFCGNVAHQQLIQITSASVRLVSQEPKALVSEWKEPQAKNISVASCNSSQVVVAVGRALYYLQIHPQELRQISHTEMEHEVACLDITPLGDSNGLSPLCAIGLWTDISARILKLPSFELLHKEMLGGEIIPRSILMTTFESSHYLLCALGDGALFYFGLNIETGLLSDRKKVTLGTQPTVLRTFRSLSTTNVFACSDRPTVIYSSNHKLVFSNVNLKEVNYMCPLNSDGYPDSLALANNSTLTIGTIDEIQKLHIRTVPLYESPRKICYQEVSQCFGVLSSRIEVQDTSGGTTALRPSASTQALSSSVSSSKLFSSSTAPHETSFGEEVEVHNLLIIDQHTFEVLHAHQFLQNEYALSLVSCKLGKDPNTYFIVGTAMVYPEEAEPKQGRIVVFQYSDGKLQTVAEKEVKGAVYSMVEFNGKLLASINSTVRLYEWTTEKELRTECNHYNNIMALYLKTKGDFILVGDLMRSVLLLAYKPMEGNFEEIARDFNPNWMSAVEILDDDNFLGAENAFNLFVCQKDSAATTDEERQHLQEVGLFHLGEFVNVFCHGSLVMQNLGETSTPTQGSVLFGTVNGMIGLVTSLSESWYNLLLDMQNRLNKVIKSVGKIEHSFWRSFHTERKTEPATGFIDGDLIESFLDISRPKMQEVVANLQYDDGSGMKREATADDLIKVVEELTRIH

MM.1S = assay: Cell viability assay (CellTiter-Meiluncell Luminescent), tumor cell proliferation, MM.1S; conditions: Homo sapiens, MM1.S, 96 h, read-out: inhibitory activity (IC50, nM) against tumor cells proliferation, MM.1S
WEE1 = biological target: T2, WEE1 (Homo sapiens, UniProt P30291+Q96SW2); assay: Western-blot assay, substrate protein degradation in hPBMCs: WEE1; type: cell-based; conditions: compounds at 50 nM and 500 nM, 24 hours
T2 construct: effects of the compounds of the present disclosure on the expression of target proteins in cells; endogenous in cells; host or cells: human PBMCs (hPBMCs)
T2 sequence (P30291 whole entry): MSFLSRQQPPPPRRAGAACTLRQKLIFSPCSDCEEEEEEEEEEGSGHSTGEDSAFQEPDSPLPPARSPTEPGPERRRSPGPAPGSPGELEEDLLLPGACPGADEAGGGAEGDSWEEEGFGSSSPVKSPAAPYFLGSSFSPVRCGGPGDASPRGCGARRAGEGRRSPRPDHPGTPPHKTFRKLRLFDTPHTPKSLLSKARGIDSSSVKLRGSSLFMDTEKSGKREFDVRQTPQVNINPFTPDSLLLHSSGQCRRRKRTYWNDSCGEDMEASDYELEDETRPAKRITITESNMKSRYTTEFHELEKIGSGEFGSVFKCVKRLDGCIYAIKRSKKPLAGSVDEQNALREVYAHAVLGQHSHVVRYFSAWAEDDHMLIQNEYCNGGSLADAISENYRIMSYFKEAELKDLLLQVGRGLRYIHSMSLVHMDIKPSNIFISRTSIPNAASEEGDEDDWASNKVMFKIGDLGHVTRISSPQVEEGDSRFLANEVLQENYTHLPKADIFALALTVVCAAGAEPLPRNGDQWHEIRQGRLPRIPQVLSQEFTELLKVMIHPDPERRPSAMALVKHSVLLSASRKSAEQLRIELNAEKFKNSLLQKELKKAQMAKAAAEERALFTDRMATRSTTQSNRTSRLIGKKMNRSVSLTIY
T2 sequence (Q96SW2 whole entry): as the sequence (Q96SW2 whole entry) above
T2 sequence (Q16531 whole entry partner): as the sequence (Q16531 whole entry partner) above

CK1α = biological target: T3, CK1α (Homo sapiens, UniProt P48729+Q96SW2); assay: Western-blot assay, substrate protein degradation in hPBMCs: CK1α; type: cell-based; conditions: compounds at 50 nM and 500 nM, 24 hours
T3 construct: effects of the compounds of the present disclosure on the expression of target proteins in cells; endogenous in cells; host or cells: human PBMCs (hPBMCs)
T3 sequence (P48729 whole entry): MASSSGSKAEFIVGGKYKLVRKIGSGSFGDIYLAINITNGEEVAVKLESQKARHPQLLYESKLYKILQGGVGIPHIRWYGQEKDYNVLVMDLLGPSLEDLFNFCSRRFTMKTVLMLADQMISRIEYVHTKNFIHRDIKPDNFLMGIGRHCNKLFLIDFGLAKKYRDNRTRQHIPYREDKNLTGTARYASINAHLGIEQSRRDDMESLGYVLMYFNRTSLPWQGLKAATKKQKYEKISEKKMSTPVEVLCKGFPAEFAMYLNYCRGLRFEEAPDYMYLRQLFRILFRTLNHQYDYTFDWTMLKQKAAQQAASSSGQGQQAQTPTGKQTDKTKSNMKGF
T3 sequence (Q96SW2 whole entry): as the sequence (Q96SW2 whole entry) above
T3 sequence (Q16531 whole entry partner): as the sequence (Q16531 whole entry partner) above

IKZF1 = biological target: T4, IKZF1 (Homo sapiens, UniProt Q13422+Q96SW2); assay: Western-blot assay, substrate protein degradation in hPBMCs: IKZF1; type: cell-based; conditions: compounds at 50 nM and 500 nM, 24 hours
T4 construct: effects of the compounds of the present disclosure on the expression of target proteins in cells; endogenous in cells; host or cells: human PBMCs (hPBMCs)

GSPT1 = biological target: T5, GSPT1 (Homo sapiens, UniProt P15170+Q96SW2); assay: Western-blot assay, substrate protein degradation in hPBMCs: GSPT1; type: cell-based; conditions: compounds at 50 nM and 500 nM, 24 hours
T5 construct: effects of the compounds of the present disclosure on the expression of target proteins in cells; endogenous in cells; host or cells: human PBMCs (hPBMCs)
T5 sequence (P15170 whole entry): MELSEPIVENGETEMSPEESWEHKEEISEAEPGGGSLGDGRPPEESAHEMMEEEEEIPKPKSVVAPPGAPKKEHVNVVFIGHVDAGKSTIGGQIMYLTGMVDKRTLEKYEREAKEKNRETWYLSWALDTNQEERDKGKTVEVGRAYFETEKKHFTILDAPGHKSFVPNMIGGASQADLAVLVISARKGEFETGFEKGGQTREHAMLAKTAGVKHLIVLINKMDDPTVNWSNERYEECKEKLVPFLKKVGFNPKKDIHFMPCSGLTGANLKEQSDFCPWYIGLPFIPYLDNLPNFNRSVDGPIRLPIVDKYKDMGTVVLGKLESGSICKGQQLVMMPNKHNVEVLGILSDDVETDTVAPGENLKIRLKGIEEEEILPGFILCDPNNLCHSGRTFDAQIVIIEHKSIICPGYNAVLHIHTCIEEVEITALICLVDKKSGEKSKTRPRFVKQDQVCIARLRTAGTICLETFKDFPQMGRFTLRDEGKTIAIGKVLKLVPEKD
T5 sequence (Q96SW2 whole entry): as the sequence (Q96SW2 whole entry) above
T5 sequence (Q16531 whole entry partner): as the sequence (Q16531 whole entry partner) above

IKZF2 = biological target: T6, IKZF2 (Homo sapiens, UniProt Q96SW2+Q9UKS7); assay: Western-blot assay, substrate protein degradation in hPBMCs: IKZF2; type: cell-based; conditions: compounds at 50 nM and 500 nM, 24 hours
T6 construct: effects of the compounds of the present disclosure on the expression of target proteins in cells; endogenous in cells; host or cells: human PBMCs (hPBMCs)
T6 sequence (Q9UKS7 whole entry): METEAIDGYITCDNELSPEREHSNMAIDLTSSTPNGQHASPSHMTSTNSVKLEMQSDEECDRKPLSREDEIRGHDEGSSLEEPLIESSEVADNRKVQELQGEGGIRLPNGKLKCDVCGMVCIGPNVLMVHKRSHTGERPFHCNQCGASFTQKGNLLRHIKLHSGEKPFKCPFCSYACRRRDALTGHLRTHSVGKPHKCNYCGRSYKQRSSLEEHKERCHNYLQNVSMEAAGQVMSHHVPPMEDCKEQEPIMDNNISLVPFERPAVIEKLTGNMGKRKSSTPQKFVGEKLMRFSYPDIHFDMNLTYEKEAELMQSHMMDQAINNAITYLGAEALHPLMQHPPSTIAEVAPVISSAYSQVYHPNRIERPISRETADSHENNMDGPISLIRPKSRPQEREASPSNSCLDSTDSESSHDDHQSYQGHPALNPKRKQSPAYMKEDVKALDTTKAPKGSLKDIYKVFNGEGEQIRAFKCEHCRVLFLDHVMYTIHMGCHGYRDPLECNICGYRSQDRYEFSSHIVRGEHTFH
T6 sequence (Q96SW2 whole entry): as the sequence (Q96SW2 whole entry) above
T6 sequence (Q16531 whole entry partner): as the sequence (Q16531 whole entry partner) above

| Compound | IKZF3 substrate protein remaining % (IKZF3) | IC50 (MM.1S) | WEE1 substrate protein remaining % (WEE1) | CK1α substrate protein remaining % (CK1α) | IKZF1 substrate protein remaining % (IKZF1) | GSPT1 substrate protein remaining % (GSPT1) | IKZF2 substrate protein remaining % (IKZF2) |
| --- | --- | --- | --- | --- | --- | --- | --- |
| CC1(C)CCC(CN2CCN(Cc3ccc4c(c3)CN(N3CCC(=O)NC3=O)C4=O)CC2)=C(c2ccc(Cl)cc2)C1 [GT-04944, 1-(5-((4-((4'-chloro-5,5-dimethyl-3,4,5,6-tetrahydro-[1,1'-biphenyl]-2-yl)methyl)piperazin-1-yl)methyl)-1-oxoisoindolin-2-yl)dihydropyrimidine-2,4(1H,3H)-dione] | B ("B" is defined as 80%< substrate protein remaining %≤ 100%) | 500 to 1000 nM | B ("B" is defined as 80%< substrate protein remaining %≤ 100%) | B ("B" is defined as 80%< substrate protein remaining %≤ 100%) | B ("B" is defined as 80%< substrate protein remaining %≤ 100%) | A ("A" is defined as 0% ≤ substrate protein remaining % ≤ 80%) | B ("B" is defined as 80%< substrate protein remaining %≤ 100%) |
| O=C1CCN(N2Cc3cc(CN4CCN(c5cccc(Cl)n5)CC4)ccc3C2=O)C(=O)N1 [GT-05126, 1-(5-((4-(6-chloropyridin-2-yl)piperazin-1-yl)methyl)-1-oxoisoindolin-2-yl)dihydropyrimidine-2,4(1H,3H)-dione] | A ("A" is defined as 0% ≤ substrate protein remaining % ≤ 80%) | 300 to 500 nM | A ("A" is defined as 0% ≤ substrate protein remaining % ≤ 80%) | A ("A" is defined as 0% ≤ substrate protein remaining % ≤ 80%) | A ("A" is defined as 0% ≤ substrate protein remaining % ≤ 80%) | A ("A" is defined as 0% ≤ substrate protein remaining % ≤ 80%) | A ("A" is defined as 0% ≤ substrate protein remaining % ≤ 80%) |
| O=C1CCN(N2Cc3cc(CN4CCN(c5ccc(Cl)cn5)CC4)ccc3C2=O)C(=O)N1 [GT-05127, 1-(5-((4-(5-chloropyridin-2-yl)piperazin-1-yl)methyl)-1-oxoisoindolin-2-yl)dihydropyrimidine-2,4(1H,3H)-dione] | A ("A" is defined as 0% ≤ substrate protein remaining % ≤ 80%) | 500 to 1000 nM | A ("A" is defined as 0% ≤ substrate protein remaining % ≤ 80%) | A ("A" is defined as 0% ≤ substrate protein remaining % ≤ 80%) | A ("A" is defined as 0% ≤ substrate protein remaining % ≤ 80%) | A ("A" is defined as 0% ≤ substrate protein remaining % ≤ 80%) | B ("B" is defined as 80%< substrate protein remaining %≤ 100%) |
| O=C1CCN(N2Cc3cc(CN4C[C@@H]5C[C@H]4CN5c4cccc(Cl)c4Cl)ccc3C2=O)C(=O)N1 [GT-05163, 1-(5-(((1S,4S)-5-(2,3-dichlorophenyl)-2,5-diazabicyclo[2.2.1]heptan-2-yl)methyl)-1-oxoisoindolin-2-yl)dihydropyrimidine-2,4(1H,3H)-dione] | A ("A" is defined as 0% ≤ substrate protein remaining % ≤ 80%) | 500 to 1000 nM | B ("B" is defined as 80%< substrate protein remaining %≤ 100%) | B ("B" is defined as 80%< substrate protein remaining %≤ 100%) | A ("A" is defined as 0% ≤ substrate protein remaining % ≤ 80%) | A ("A" is defined as 0% ≤ substrate protein remaining % ≤ 80%) | A ("A" is defined as 0% ≤ substrate protein remaining % ≤ 80%) |
| O=C1CCN(N2Cc3cc(CN4CCC(c5c[nH]c6cc(F)ccc56)CC4)ccc3C2=O)C(=O)N1 [GT-05164, 1-(5-((4-(6-fluoro-1H-indol-3-yl)piperidin-1-yl)methyl)-1-oxoisoindolin-2-yl)dihydropyrimidine-2,4(1H,3H)-dione] | B ("B" is defined as 80%< substrate protein remaining %≤ 100%) | 100 to 300 nM | B ("B" is defined as 80%< substrate protein remaining %≤ 100%) | B ("B" is defined as 80%< substrate protein remaining %≤ 100%) | A ("A" is defined as 0% ≤ substrate protein remaining % ≤ 80%) | A ("A" is defined as 0% ≤ substrate protein remaining % ≤ 80%) | A ("A" is defined as 0% ≤ substrate protein remaining % ≤ 80%) |
| O=C1CCN(N2Cc3cc(CN4CCC(N5CCc6cc(F)ccc65)CC4)ccc3C2=O)C(=O)N1 [GT-05165, 1-(5-((4-(5-fluoroindolin-1-yl)piperidin-1-yl)methyl)-1-oxoisoindolin-2-yl)dihydropyrimidine-2,4(1H,3H)-dione] | B ("B" is defined as 80%< substrate protein remaining %≤ 100%) | 500 to 1000 nM | B ("B" is defined as 80%< substrate protein remaining %≤ 100%) | B ("B" is defined as 80%< substrate protein remaining %≤ 100%) | B ("B" is defined as 80%< substrate protein remaining %≤ 100%) | A ("A" is defined as 0% ≤ substrate protein remaining % ≤ 80%) | A ("A" is defined as 0% ≤ substrate protein remaining % ≤ 80%) |
| O=C1CCN(N2Cc3cc(CN4CC=C(c5ccnc6cc(F)ccc56)CC4)ccc3C2=O)C(=O)N1 [GT-05166, 1-(5-((4-(7-fluoroquinolin-4-yl)-3,6-dihydropyridin-1(2H)-yl)methyl)-1-oxoisoindolin-2-yl)dihydropyrimidine-2,4(1H,3H)-dione] | A ("A" is defined as 0% ≤ substrate protein remaining % ≤ 80%) | 100 to 300 nM | A ("A" is defined as 0% ≤ substrate protein remaining % ≤ 80%) | B ("B" is defined as 80%< substrate protein remaining %≤ 100%) | A ("A" is defined as 0% ≤ substrate protein remaining % ≤ 80%) | A ("A" is defined as 0% ≤ substrate protein remaining % ≤ 80%) | A ("A" is defined as 0% ≤ substrate protein remaining % ≤ 80%) |
| Cn1cc(C2=CCN(Cc3ccc4c(c3)CN(N3CCC(=O)NC3=O)C4=O)CC2)c2ccc(F)cc21 [GT-05167, 1-(5-((4-(6-fluoro-1-methyl-1H-indol-3-yl)-3,6-dihydropyridin-1(2H)-yl)methyl)-1-oxoisoindolin-2-yl)dihydropyrimidine-2,4(1H,3H)-dione] | A ("A" is defined as 0% ≤ substrate protein remaining % ≤ 80%) | 10 to 50 nM | A ("A" is defined as 0% ≤ substrate protein remaining % ≤ 80%) | B ("B" is defined as 80%< substrate protein remaining %≤ 100%) | A ("A" is defined as 0% ≤ substrate protein remaining % ≤ 80%) | A ("A" is defined as 0% ≤ substrate protein remaining % ≤ 80%) | A ("A" is defined as 0% ≤ substrate protein remaining % ≤ 80%) |
